# How the values were obtained:
# [1] = test system: HBsAg antigen-specific IFN-γ; design: species or system C57BL/6(N) mice; conditions: mouse, in vivo
# [2] = test system: HBcAg antigen-specific IFN-γ; design: species or system C57BL/6(N) mice; conditions: mouse, in vivo
substance,measurement,setting,value
QS-21 [QS21],"induced production level of HBsAg-specific IFN-γ, CpG T1 with different saponins",[1],best effect
same,"induced production level of HBcAg-specific IFN-γ, CpG T1 with different saponins",[2],best effect

# Reference: US12622962B2 (priority 2019, dated 2026)
